Key:
[1] = biological target: T1, Vitamin D3 receptor (Homo sapiens) (UniProt P11473); assay: Effect on Gal4 DBD-hVDRdelta LBD construct transactivation in COS7 cells at 10(-7) M; type: functional, cell-based; details: COS-7
T1 sequence (whole entry): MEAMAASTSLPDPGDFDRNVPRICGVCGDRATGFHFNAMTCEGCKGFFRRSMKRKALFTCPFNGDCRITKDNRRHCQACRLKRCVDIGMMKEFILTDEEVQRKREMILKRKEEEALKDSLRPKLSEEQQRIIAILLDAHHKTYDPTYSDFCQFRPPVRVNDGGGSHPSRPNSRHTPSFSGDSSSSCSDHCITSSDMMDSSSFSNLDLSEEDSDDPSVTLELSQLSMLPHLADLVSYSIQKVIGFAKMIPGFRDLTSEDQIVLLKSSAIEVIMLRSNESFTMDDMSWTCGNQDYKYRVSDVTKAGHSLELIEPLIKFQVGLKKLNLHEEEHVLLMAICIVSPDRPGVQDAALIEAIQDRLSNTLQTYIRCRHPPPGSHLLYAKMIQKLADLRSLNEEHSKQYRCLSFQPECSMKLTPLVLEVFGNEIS

[2] = biological target: T1, Vitamin D3 receptor (Homo sapiens); assay: Effect on Gal4 DBD-hVDRdelta LBD construct transactivation in COS7 cells at 10(-5) M; type: functional, cell-based; details: COS-7

Row | Activity [1] | Activity [2] | SMILES
1 | 6% |  | C=C1/C(=C\C=C2/CC[C@@H](CCCCCCCC(C)(C)O)[C@]3(C)CCC[C@@H]23)C[C@@H](O)C[C@@H]1O
2 | 8% |  | C=C1/C(=C\C=C2/CC[C@@H](CCCCCC(C)(C)O)[C@]3(C)CCC[C@@H]23)C[C@@H](O)C[C@@H]1O
3 | 20% | 100% | C=C1/C(=C\C=C2/CC[C@@H](CCCCCCC(C)(C)O)[C@]3(C)CCC[C@@H]23)C[C@@H](O)C[C@@H]1O
